Source: ChEMBL document CHEMBL1144624, “1,2,3-Triazolylalkylribitol derivatives as nucleoside hydrolase inhibitors” (Bioorg Med Chem Lett, 2007)
pKi: −log10 of the molar value.

The compounds below were run against T1, IAG-nucleoside hydrolase (Trypanosoma vivax, UniProt Q9GPQ4) (assay: Inhibition of Trypanosoma vivax IAG-nucleoside hydrolase).
T1 sequence (Q9GPQ4 whole entry): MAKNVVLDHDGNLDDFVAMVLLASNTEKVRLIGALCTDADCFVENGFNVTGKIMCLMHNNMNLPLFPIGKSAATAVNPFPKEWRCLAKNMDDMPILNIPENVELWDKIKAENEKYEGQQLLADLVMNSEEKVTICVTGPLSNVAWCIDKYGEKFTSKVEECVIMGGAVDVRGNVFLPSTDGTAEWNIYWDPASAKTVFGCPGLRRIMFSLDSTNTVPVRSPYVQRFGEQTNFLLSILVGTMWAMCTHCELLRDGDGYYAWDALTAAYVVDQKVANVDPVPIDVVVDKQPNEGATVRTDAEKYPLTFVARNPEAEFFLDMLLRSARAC
OC[C@H]1O[C@@H](CCn2nncc2-c2ccccc2)[C@H](O)[C@@H]1O was tested, and the pKi was 3.17.
In the case of CCc1nnn(CC[C@@H]2O[C@H](CO)[C@@H](O)[C@H]2O)c1CC, the pKi was 4.20.
Cc1c(-c2ccccc2)nnn1CC[C@@H]1O[C@H](CO)[C@@H](O)[C@H]1O was tested, and the pKi was 5.64.
Cc1c(-c2ccccc2)nnn1C[C@@H]1O[C@H](CO)[C@@H](O)[C@H]1O showed a pKi of 4.06.
Compound Cc1nnn(C[C@@H]2O[C@H](CO)[C@@H](O)[C@H]2O)c1-c1ccccc1 has a pKi of 3.28.
Work on OC[C@H]1O[C@@H](CCn2cc(-c3ccccc3)nn2)[C@H](O)[C@@H]1O yielded a pKi of 4.68.
OC[C@H]1O[C@@H](CCn2cc(-c3ccccn3)nn2)[C@H](O)[C@@H]1O was tested, and the pKi was 4.64.
Cc1nnn(CC[C@@H]2O[C@H](CO)[C@@H](O)[C@H]2O)c1-c1ccccc1 was tested, and the pKi was 4.49.
With [N-]=[N+]=NCC[C@@H]1O[C@H](CO)[C@@H](O)[C@H]1O the pKi was 2.25.
